Measured values taken from patent US20210139484A1, “DIHYDROISOQUINOLINE-2(1H)-CARBOXAMIDE AND RELATED COMPOUNDS AND THEIR USE IN TREATING MEDICAL CONDITIONS” (GOSSAMER BIO SERVICES, INC., priority 2018, published 2021).

Biological target: T1, human HPK1 protein (Homo sapiens, UniProt Q92918)
T1 construct: recombinant human HPK1 protein (a.a. 1-346) was expressed in Sf9 insect cells; GST (N); purchased Signalchem M23-11G; host or cells: Sf9 insect cells (baculovirus)
T1 sequence (Q92918 1-346): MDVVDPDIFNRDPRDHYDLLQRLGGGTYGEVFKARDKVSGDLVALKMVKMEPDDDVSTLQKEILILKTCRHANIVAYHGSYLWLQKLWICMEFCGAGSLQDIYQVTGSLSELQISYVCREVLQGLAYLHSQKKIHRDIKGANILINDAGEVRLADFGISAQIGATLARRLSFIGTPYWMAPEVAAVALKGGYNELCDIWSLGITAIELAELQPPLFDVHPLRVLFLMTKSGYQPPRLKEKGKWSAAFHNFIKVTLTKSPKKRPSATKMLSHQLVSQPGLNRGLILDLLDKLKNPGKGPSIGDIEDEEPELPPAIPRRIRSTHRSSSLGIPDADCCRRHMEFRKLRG
Experiment: Human HPK1 protein TR-FRET assay
Format: biochemical
Conditions: 1 mM ATP
Procedure: Exemplary compounds from the above Examples were tested for ability to inhibit HPK1 using a human HPK1 protein TR-FRET Assay. Assay procedures and results are described below.
N-terminal GST-tagged recombinant human HPK1 protein (a.a. 1-346) was expressed in Sf9 insect cells using a baculovirus expression system (Signalchem Catalog #M23-11G). The enzyme was diluted in assay buffer (50 mM Tris pH 7.5, 1 mM MgCl2, 0.01% NP-40 and 2 mM DTT) to obtain a 4× working solution at a concentration of 40 nM HPK1 enzyme.
A 5 μM stock of ULight™ CREBtide peptide RRPSYRK (Perkin Elmer Product No. TRF0107-M) derived from human cAMP Response Element Binding (CREB) Protein was prepared in storage buffer containing 50 mM Tris-HCl (pH 7.4), 0.9% NaCl, 0.1% BSA, and 0.05% sodium azide. The CREBtide substrate was diluted in assay buffer (50 mM Tris pH 7.5, 1 mM MgCl2, 0.01% NP-40, 2 mM DTT) with 2 mM ATP to a final concentration of 200 nM CREBtide peptide to obtain a 2× working solution of substrate. HPK1 enzyme and CREBtide substrate solutions were mixed with compounds diluted in DMSO to obtain a final concentration of enzyme, substrate, and ATP of 10 nM, 100 nM, and 1 mM, respectively, in 1% DMSO. The final assay mixture was incubated at room temperature for 60 minutes.
A solution of Europium-labeled anti-phospho-CREB (Ser133) antibody (Perkin Elmer Product No. TRF0200-M), EDTA and LANCE™ Detection Buffer (Perkin Elmer Product No. CR97-100) were added to each well to obtain a final concentration of 2 nM antibody, 10 mM EDTA and 1× LANCE buffer. The resulting mixture was incubated at room temperature for 60 minutes.
The fluorescence resonance energy transfer (FRET) signal was measured on an Envision plate reader: Excitation filter=340 nm, APC emission=665 nm, Europium emission=615 nm, dichroic mirror=D400/D630, delay time=100 μs, and integration time=200 μs. The half maximal inhibitory concentration (IC50) values for compounds were calculated from the quotient of the fluorescence signal at 665 nm divided by the fluorescence signal at 615 nm. The quotient of the fluorescence signals in the presence of DMSO without compound is set as 100 percent enzymatic activity. A 4-parameter logistic model in PRISM (GraphPad) was used to calculate the IC50 for a given compound.

Row | SMILES | IC50 (Table 20) | IC50 (Table 19)
1 | CC[C@H]1CN(C(=O)Nc2ccc(CN3CCN(CCO)CC3)c(C(F)(F)F)c2)Cc2cc(Oc3ccnc4[nH]c(C5CC5)cc34)cnc21 [XIV-60] | < 500 nM | 
2 | CCN1CCN(Cc2ccc(NC(=O)N3CCc4ccc(Oc5ccnn6cc(C#N)cc56)cc4[C@@H]3C)cc2C(F)(F)F)CC1 [V-8] |  | < 500 nM
3 | CCC1CN(C(=O)Nc2ccc(CN3CCN(CC)CC3)c(C(F)(F)F)c2)Cc2cc(Oc3ccnc4[nH]c(C)cc34)cnc21 (single isomer, unassigned) [VII-23] |  | < 500 nM
4 | Cc1cc2c(Oc3cnc4c(c3)CN(C(=O)Nc3ccc(CN5CCN(C)CC5)c(OC(F)(F)F)c3)C[C@H]4C)ccnc2[nH]1 [XIV-89] | < 500 nM | 
5 | CC[C@H]1CN(C(=O)Nc2ccc(CN3CCNCC3)c(C(F)(F)F)c2)Cc2cc(Oc3ccnc4[nH]c(C#N)cc34)ccc21 [XV-17] | < 500 nM | 
6 | CCN1CCN(Cc2ccc(NC(=O)N3CCc4ccc(Oc5ncnn6cc(-c7cnn(C)c7)cc56)cc4C3)cc2C(F)(F)F)CC1 [II-2] |  | < 500 nM
7 | CCN1CCN(Cc2ccc(NC(=O)N3Cc4cc(Oc5ccnc6[nH]c(C)cc56)c(F)cc4C(C)C3)cc2C(F)(F)F)CC1 (stereo not shown) [IV-27] |  | < 500 nM
8 | CCC1CN(C(=O)Nc2ccc(CN3CCN(CC)CC3)c(C(F)(F)F)c2)Cc2cc(Oc3ccnc4[nH]c(C5CCOC5)cc34)cnc21 (stereo not shown) [XIV-63] | < 500 nM | 
9 | CC[C@@H]1CN(C(=O)Nc2ccc(CN3CCN(CC)CC3)c(C(F)(F)F)c2)Cc2cc(Oc3c(F)cnc4[nH]c(-c5cnn(C)c5)cc34)cnc21 [XIV-39] | < 500 nM | 
10 | Cc1cc2c(Oc3ccc4c(c3)[C@H](C)N(C(=O)Nc3ccc5c(N6CCN(C)CC6)cccc5c3)CC4)ccnc2[nH]1 [X-6] |  | < 500 nM
11 | C[C@H]1c2cc(Oc3ccnc4[nH]c(CO)cc34)ccc2CCN1C(=O)Nc1cnc(OC2CCN(C)CC2)c(C(F)(F)F)c1 [XIII-3] | < 500 nM | 
12 | Cc1cc2c(Oc3ccc4c(c3)[C@H](C)N(C(=O)Nc3cnc(OC5CCN(C)CC5C)c(C(F)(F)F)c3)CC4)ccnc2[nH]1 (stereo in doubt) [VI-4] |  | 500 to 5000 nM
13 | CCN1CCN(Cc2ccc(NC(=O)N3CCc4cc(C)c(Oc5ccnc6[nH]ccc56)cc4C3)cc2C(F)(F)F)CC1 [III-1] |  | < 500 nM
14 | Cc1cc2c(Oc3ccc4c(c3)[C@H](C)N(C(=O)Nc3cnc(OCCN(C)C)c(C(F)(F)F)c3)CC4)ccnc2[nH]1 [VI-15] |  | 500 to 5000 nM
15 | CC[C@H]1CN(C(=O)Nc2ccc(CN3CCN(CC)CC3)c(C(F)(F)F)c2)Cc2cc(Oc3ccnc4[nH]c(CCOC)cc34)cnc21 [XIV-22] | < 500 nM | 
16 | CCN1CCN(Cc2ccc(NC(=O)N3Cc4cc(Oc5ccnc6[nH]c(=O)cnc56)cnc4C(C)C3)cc2C(F)(F)F)CC1 (single isomer, unassigned) [XIV-7] | 500 to 5000 nM | 
17 | CN1CCN(Cc2ncc(NC(=O)N3CCc4ccc(Oc5c(F)cnc6[nH]c(-c7ccncc7)cc56)cc4C3)cc2C(F)(F)F)CC1 [XII-10] | < 500 nM | 
18 | CC[C@H]1CN(C(=O)Nc2ccc(CN3CCN(CCO)CC3)c(C(F)F)c2)Cc2cc(Oc3ccnc4[nH]c(C(N)=O)cc34)ccc21 [XV-41] | < 500 nM | 
19 | CCC1CN(C(=O)Nc2ccc(CN3CCN(CC)CC3)c(C(F)(F)F)c2)Cc2cc(Nc3c(F)cnc4[nH]c(-c5cnn(C)c5)cc34)cnc21 (stereo not shown) [XVII-1] | < 500 nM | 
20 | CC[C@@H]1CN(C(=O)Nc2ccc(CN3CCN(C)CC3)c(C(F)F)c2)Cc2cc(Oc3ccnc4[nH]c(C5(O)COC5)cc34)ccc21 [XV-14] | < 500 nM | 
21 | CCC1CN(C(=O)Nc2ccc(CN3CCN(CC)CC3)c(C(F)(F)F)c2)Cc2cc(Oc3cc(NC(=O)OC)ncc3F)cnc21 (stereo not shown) [XIV-87] | < 500 nM | 
22 | CC[C@H]1CN(C(=O)Nc2ccc(CN3CCN(C)CC3)c(C(F)(F)F)c2)Cc2cc(Oc3ccnc4[nH]c(C(N)=O)cc34)ccc21 [XV-30] | < 500 nM | 
23 | CCN1CCN(Cc2ccc(NC(=O)N3CCc4ccc(Oc5ccnc6[nH]c(CCO)cc56)cc4[C@@H]3C)cc2C(F)(F)F)CC1 [V-24] |  | < 500 nM

Row | SMILES | IC50 (Table 20) | IC50 (Table 19)
24 | CCN1CCN(Cc2ccc(NC(=O)N3CCc4ccc(Oc5cc(Nc6ncc[nH]6)ncn5)cc4C3)cc2C(F)(F)F)CC1 [II-17] |  | < 500 nM
25 | CC[C@@H]1CN(C(=O)Nc2cnc(OC3CCN(C)CC3)c(C(F)(F)F)c2)Cc2cc(Oc3ccnc4[nH]c(C5(O)CC5)cc34)cnc21 [XIV-77] | < 500 nM | 
26 | CC[C@H]1CN(C(=O)Nc2ccc(CN3CCN(C)CC3)c(C(F)(F)F)c2)Cc2cc(Oc3ccnc4[nH]c(C(=O)N(C)CCO)cc34)cnc21 [XIV-105] | < 500 nM | 
27 | CCN1CCN(Cc2ccc(NC(=O)N3Cc4cc(Oc5ccnc6[nH]c(C)cc56)cnc4[C@H](C)C3)cc2C(F)(F)F)CC1 [XI-5] | < 500 nM | 
28 | Cc1cc2c(Oc3ccc4c(c3)CN(C(=O)Nc3cnc(OC5CCN(C)CC5)c(C(F)(F)F)c3)CC4C)ccnc2[nH]1 (single isomer, unassigned) [IV-39] |  | < 500 nM
29 | CC[C@H]1CN(C(=O)Nc2ccc(CN3CCN(C)CC3)c(C(F)F)c2)Cc2cc(Oc3ccnc4[nH]c(C5(O)COC5)cc34)cnc21 [XIV-53] | < 500 nM | 
30 | CCN1CCN(Cc2ccc(NC(=O)N3CCc4ccc(Oc5ccnc(C(=O)NC)c5)cc4[C@@H]3C)cc2C(F)(F)F)CC1 [V-13] |  | < 500 nM
31 | CCC1c2cc(Oc3ccnc4[nH]ccc34)ccc2CCN1C(=O)Nc1ccc(CN2CCN(CC)CC2)c(C(F)(F)F)c1 (stereo not shown) [IV-24] |  | 500 to 5000 nM
32 | CCN1CCN(Cc2ccc(NC(=O)N3CCc4ccc(Oc5ccnn6cccc56)cc4[C@@H]3C)cc2C(F)(F)F)CC1 [V-6] |  | < 500 nM
33 | Cc1cc2c(Oc3cnc4c(c3)CN(C(=O)Nc3cnc(OC5CCN(C)CC5)c(C(F)(F)F)c3)CC4C)ncnc2[nH]1 (stereo not shown) [VII-12] |  | < 500 nM
34 | CCN1CCN(Cc2ccc(NC(=O)N3CCc4ncc(Oc5ncnc6[nH]ccc56)cc4C3)cc2C(F)(F)F)CC1 [VII-2] |  | 500 to 5000 nM
35 | CCN1CCN(Cc2ccc(NC(=O)N3CCc4ncc(Oc5cccc6[nH]ccc56)cc4C3C)cc2C(F)(F)F)CC1 (stereo not shown) [XI-12] | > 10000 nM | 
36 | C[C@@H]1Cc2ccc(Oc3c(F)cnc4[nH]c(-c5cnn(C)c5)cc34)cc2CN1C(=O)Nc1cnc(CN2CCN(C)CC2)c(C(F)(F)F)c1 [XVI-5] | < 500 nM | 
37 | CCN1CCN(Cc2ccc(NC(=O)N3CCc4ccc(Oc5ccnn6cc(Cl)cc56)cc4C3)cc2C(F)(F)F)CC1 [II-23] |  | < 500 nM
38 | CCN1CCN(Cc2ccc(NC(=O)N3CCc4ccc(-c5ccc6cc(NC)ncc6c5)cc4C3)cc2C(F)(F)F)CC1 [XI-1] | 500 to 5000 nM | 
39 | CCN1CCN(Cc2ccc(NC(=O)N3CCc4ccc(Oc5ncnn6cccc56)cc4C3)cc2C(F)(F)F)CC1 [compound 1, N-[4-[(4-Ethylpiperazin-1-yl)methyl]-3-(trifluoromethyl)phenyl]-7-[pyrrolo[2,1-f][1,2,4]triazin-4-yloxy]-1,2,3,4-tetrahydroisoquinoline-2-carboxamide] |  | < 500 nM
40 | CCN1CCN(Cc2ccc(NC(=O)N3CCc4cc(F)c(Oc5ccnc6[nH]ccc56)cc4C3C)cc2C(F)(F)F)CC1 (stereo not shown) [IV-7] |  | 500 to 5000 nM
41 | CCN1CCN(Cc2ccc(NC(=O)N3CCc4ccc(Oc5cn[nH]c5)cc4C3)cc2C(F)(F)F)CC1 [II-21] |  | 500 to 5000 nM
42 | CCN1CCN(Cc2ccc(NC(=O)N3CCc4ncc(Oc5ccnc6[nH]c(C)cc56)cc4C3C)cc2C(F)(F)F)CC1 (single isomer, unassigned) [VIII-2] |  | < 500 nM
43 | CC[C@H]1CN(C(=O)Nc2ccc(CN3CCNCC3)c(C(F)(F)F)c2)Cc2cc(Oc3ccnc4[nH]c(-c5noc(C)n5)cc34)cnc21 [XIV-136] | < 500 nM | 
44 | CC[C@@H]1CN(C(=O)Nc2ccc(CN3CCN(C)CC3)c(C(F)F)c2)Cc2cc(Oc3ncnc4[nH]c(C5CC5)cc34)ccc21 [XV-1] | < 500 nM | 
45 | CCN1CCN(Cc2ccc(NC(=O)N3Cc4cc(Oc5ccnc6[nH]ccc56)cnc4[C@H](C)C3)cc2C(F)(F)F)CC1 [XI-11] | < 500 nM | 
46 | Cc1cc2c(Oc3ccc4c(c3)[C@H](C)N(C(=O)Nc3cnc(OC5CCCN(C)CC5)c(C(F)(F)F)c3)CC4)ccnc2[nH]1 (mixture of isomers) [VI-13] |  | 500 to 5000 nM
